From ChEMBL document CHEMBL1151598, “Synthesis of in vivo potent antimalarial 1,2,4-trioxanes” (Bioorg Med Chem Lett, 1992)
Calls of active or inactive are those of the source. No cut-off for these calls is given here.

Legend:
[1] = system: Mus musculus; assay: Compound was tested for in vivo antimalarial activity against Plasmodium berghei in male mice (Mus musculus) at dose of 90 mg/kg (intraperitoneal); A - Active; type: functional, organism-based; design: dose 90 mg/kg
[2] = system: Mus musculus; assay: Compound was tested for in vivo antimalarial activity against Plasmodium berghei in male mice (Mus musculus) at dose of 30 mg/kg (ip); A - Active; type: functional, organism-based; design: dose 30 mg/kg

`C=C(c1ccccc1)C1COC2(OO1)C1CC3CC(C1)CC2C3` (stereo not drawn) was tested, and the Activity [1] was “Active”.
`C=C(c1ccc(F)cc1)C1COC2(OO1)C1CC3CC(C1)CC2C3` (stereo not drawn) was tested, and the Activity [1] was “Active”.
`C=C(c1ccc(OC)cc1)C1COC2(OO1)C1CC3CC(C1)CC2C3` (stereo not drawn) was tested, and the Activity [2] was “Active” and the Activity [1] was “Active”.
For `C=C(c1ccc(C)cc1C)C1COC2(OO1)C1CC3CC(C1)CC2C3` (stereo not drawn), the Activity [1] was “Active”.
With `C=C(c1ccc(Cl)cc1)C1COC2(OO1)C1CC3CC(C1)CC2C3` (stereo not drawn) the Activity [2] was “Active” and the Activity [1] was “Active”.
In the case of `C=C(c1ccc(C)cc1)C1COC2(OO1)C1CC3CC(C1)CC2C3` (stereo not drawn), the Activity [1] is reported as “Active”.
